Results as given in US10258039B2, “Substituted pyrazolylpyrazole derivative and use of same as herbicide” (KYOYU AGRI CO., LTD., priority 2015, dated 2019).

Legend:
Assay type in all cases: in vivo
[1] = test system: Echinochloa crus-galli; assay: Paddy herbicidal activity test; conditions: irrigated paddy pot, treated at 3.5 leaf stage of Echinochloa crus-galli, 30 days, 30° C.
Experimental: (§1) 1. Paddy Herbicidal Activity Test
(§2) Rice paddy soil was filled into a 1/10000 are pot followed by the addition of suitable amounts of water and chemical fertilizer, kneading, seeding with Echinochloa crus-galli, Monochoria vaginalis and Scirpus juncoides and maintaining in an irrigated state at a water depth of 3 cm.
(§3) Wettable powders of Target Compound (I) shown in. Table 1 prepared in compliance with the preparation examples were diluted with a suitable amount of water, rice plants in the 2.0 leaf stage were transplanted during 3.5 leaf stage of Echinochloa crus-galli, and treated by dropping in chemical in the prescribed amount per 10 are using a pipette.
(§4) After treating for 30 days in a glass greenhouse at an average atmospheric temperature of 30° C., the herbicidal efficacy thereof was investigated.
(§5) Evaluation of herbicidal efficacy was carried out by comparing growth inhibition rate (%) with an untreated group, while evaluation of phytotoxicity was carried out by comparing growth inhibition rate (%) with the state of a complete eradication group, and were evaluated at 11 levels indicated below.

[2] = test system: Monochoria vaginalis; assay: Paddy herbicidal activity test; conditions: irrigated paddy pot, 30 days, 30° C.
Experimental: as §1, §2, §3, §4, §5

[3] = test system: Scirpus juncoides; assay: Paddy herbicidal activity test; conditions: irrigated paddy pot, 30 days, 30° C.
Experimental: as §1, §2, §3, §4, §5

[4] = test system: Oryza sativa; assay: Paddy herbicidal activity test, phytotoxicity to transplanted rice; conditions: rice transplanted at 2.0 leaf stage, 30 days, 30° C.
Experimental: as §1, §2, §3, §4, §5

[5] = test system: Amaranthus retroflexus; assay: Farming soil treatment test; conditions: soil surface spray prior to weed growth, 30 days, 30° C.
Experimental: (§6) 2. Farming Soil Treatment Test
(§7) Field soil was filled into a 1/6000 are pot followed by seeding with Digitaria ciliaris, Chenopodium album and Amaranthus retroflexus and covering with soil.
(§8) Wettable powders of compounds of formula (I) shown in Table 1 prepared in compliance with the preparation examples were diluted with water to the prescribed amount of chemical and uniformly sprayed onto each soil surface layer using 100 liters of sprayed water per 10 are prior to weed growth following seeding.
as §4
(§9) Evaluation of herbicidal efficacy was carried out in the same manner as the above-mentioned Test Example 1.

[6] = test system: Chenopodium album; assay: Farming soil treatment test; conditions: soil surface spray prior to weed growth, 30 days, 30° C.
Experimental: as §6, §7, §8, §4, §9

[7] = test system: Digitaria ciliaris; assay: Farming soil treatment test; conditions: soil surface spray prior to weed growth, 30 days, 30° C.
Experimental: as §6, §7, §8, §4, §9

[8] = test system: Amaranthus retroflexus; assay: Weed foliar treatment test (Test 3, 1.0 to 2.0 leaf stage); conditions: foliar spray at 1.0 to 2.0 leaf stage of Digitaria ciliaris, 3 weeks, 25° C.
Experimental: (§10) 3. Weed Foliar Treatment Test
(§11) Soil was filled into a 1/6000 are pot followed by seeding with Digitaria ciliaris, Chenopodium album and Amaranthus retroflexus, covering with soil, and cultivating in a glass greenhouse at an average atmospheric temperature of 25° C.
(§12) Wettable powders of Target Compound (I) shown in Table 1 prepared in compliance with the preparation examples were diluted with water to the prescribed amount of chemical and uniformly sprayed onto the weeds using 150 liters of sprayed water per 10 are when Digitaria ciliaris had grown to the 1.0 to 2.0 leaf stage.
(§13) After treating for 3 weeks in a glass greenhouse at an average atmospheric temperature of 25° C., the herbicidal efficacy thereof was investigated.
as §9

[9] = test system: Chenopodium album; assay: as above; conditions: foliar spray at 1.0 to 2.0 leaf stage of Digitaria ciliaris, 3 weeks, 25° C.
Experimental: as §10, §11, §12, §13, §9

[10] = test system: Digitaria ciliaris; assay: as above; conditions: foliar spray at 1.0 to 2.0 leaf stage of Digitaria ciliaris, 3 weeks, 25° C.
Experimental: as §10, §11, §12, §13, §9

[11] = test system: Digitaria ciliaris; assay: Weed foliar treatment test (Test 4, 4.0 to 5.0 leaf stage); conditions: 10g a.i./10a; foliar spray at 4.0 to 5.0 leaf stage of Digitaria ciliaris (plant height 10 cm to 15 cm); 20 days, 25° C.
Experimental: (§14) 4. Weed Foliar Treatment Test
(§15) Field soil was filled into a 1/4500 are pot followed by seeding with Digitaria ciliaris and Galinsoga parviflora, covering with soil and cultivating in a glass greenhouse at an average atmospheric temperature of 25° C.
as §12, with “100” for “150”, “4.0” for “1.0”, “5.0” for “2.0”, “stage (plant height: 10 cm to 15 cm).” for “stage.”
(§16) After treating for 20 days in a glass greenhouse at an average atmospheric temperature of 25° C., the herbicidal efficacy thereof was investigated.
as §9

[12] = test system: Galinsoga parviflora; assay: as above; conditions: 10g a.i./10a; foliar spray at 4.0 to 5.0 leaf stage of Digitaria ciliaris; 20 days, 25° C.
Experimental: as §14, §15
as §12, with “100” for “150”, “4.0” for “1.0”, “5.0” for “2.0”, “stage (plant height: 10 cm to 15 cm).” for “stage.”
as §16, §9

N#Cc1cnn(-c2nn3c(c2Cl)CCCC3)c1NC(=O)C1CC1 [Control agent 4.190, reference compound]
8 (8: 80% to less than 90%): phytotoxicity, Oryza sativa ([4]; 1g a.i./10a)
4 (4: 40% to less than 50%): herbicidal efficacy, Monochoria vaginalis ([2]; 1g a.i./10a) | herbicidal efficacy, Scirpus juncoides ([3]; 1g a.i./10a) | herbicidal efficacy, Amaranthus retroflexus ([5]; 5g a.i./10a) | herbicidal efficacy, Amaranthus retroflexus ([5]; 10g a.i./10a) | herbicidal efficacy, Digitaria ciliaris ([7]; 10g a.i./10a) | herbicidal efficacy, Amaranthus retroflexus ([8]; 5g a.i./10a) | herbicidal efficacy, Galinsoga parviflora [12]
6 (6: 60% to less than 70%): herbicidal efficacy, Echinochloa crus-galli ([1]; 1g a.i./10a) | herbicidal efficacy, Echinochloa crus-galli ([1]; 5g a.i./10a) | herbicidal efficacy, Chenopodium album ([6]; 10g a.i./10a) | herbicidal efficacy, Amaranthus retroflexus ([8]; 10g a.i./10a) | herbicidal efficacy, Chenopodium album ([9]; 10g a.i./10a) | herbicidal efficacy, Digitaria ciliaris ([10]; 10g a.i./10a)
9 (9: 90% to less than 100%): phytotoxicity, Oryza sativa ([4]; 5g a.i./10a)
5 (5: 50% to less than 60%): herbicidal efficacy, Monochoria vaginalis ([2]; 5g a.i./10a) | herbicidal efficacy, Scirpus juncoides ([3]; 5g a.i./10a) | herbicidal efficacy, Chenopodium album ([6]; 5g a.i./10a) | herbicidal efficacy, Chenopodium album ([9]; 5g a.i./10a) | herbicidal efficacy, Digitaria ciliaris ([10]; 5g a.i./10a)
3 (3: 30% to less than 40%): herbicidal efficacy, Digitaria ciliaris ([7]; 5g a.i./10a)
2 (2: 20% to less than 30%): herbicidal efficacy, Digitaria ciliaris [11]
